Values of other authors, collected in patent US10709751B2, “Chardonnay grape seed extract” (SHAKLEE CORPORATION, priority 2014, dated 2020).

Columns and labels:
neurons = conditions: laboratory studies
[1] = laboratory studies

For chlorogenic acids, which “growth and development of neurons” value (neurons) is on record?
Its value is “stimulate growth and development of neurons”.

Which “crossing of the blood-brain barrier” value [1] does the source give for COc1cc(/C=C/c2ccc(O)cc2)cc(OC)c1 [pterostilbene] here?
Its value is “cross the blood-brain barrier”.

With Oc1cc(O)c2c(c1)O[C@H](c1ccc(O)c(O)c1)[C@H](O)C2 [epicatechin] as the compound, how does the “crossing of the blood-brain barrier” value [1] read?
Its value is “cross the blood-brain barrier”.
